Source: publication PMC7048285, “Lack of an association between clinical INSTI-related body weight gain and direct interference with MC4 receptor (MC4R), a key central regulator of body weight” (PLoS ONE, 2020)

Key:
[1] = human plasma; cited from earlier work
human MC4R [2] = biological target: T1, human MC4R (Homo sapiens, UniProt P32245); test: Biochemical radioligand binding assay ([125I]NDP-α-MSH) on membranes of transfected CHO cells; design: host or cells: CHO cells (membrane homogenates); settings: for % inhibition of binding at 100 µM: 100 µM test compound, % inhibition of [125I]NDP-α-MSH specific binding; for IC50: radioligand binding, 0.05 nM [125I]NDP-α-MSH, 8 concentrations
T1 sequence (P32245 whole entry): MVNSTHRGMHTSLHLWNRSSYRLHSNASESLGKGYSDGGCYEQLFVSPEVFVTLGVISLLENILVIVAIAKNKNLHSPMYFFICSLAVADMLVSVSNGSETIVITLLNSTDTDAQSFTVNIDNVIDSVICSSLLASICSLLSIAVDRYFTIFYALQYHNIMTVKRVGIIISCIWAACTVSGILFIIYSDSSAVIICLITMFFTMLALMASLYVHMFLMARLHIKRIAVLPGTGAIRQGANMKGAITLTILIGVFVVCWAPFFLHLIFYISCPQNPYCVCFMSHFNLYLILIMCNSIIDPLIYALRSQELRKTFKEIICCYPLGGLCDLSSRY

mice = settings: daily oral, 4 weeks, AUC 16- to 30-fold clinical exposure at 50 mg; cited from earlier work
rats = settings: daily oral, 26 weeks, AUC 16- to 30-fold clinical exposure at 50 mg; cited from earlier work
[3] = read-out: Human efficacious Cmax; total plasma, at recommended clinical dosage; cited from earlier work
[4] = biological target: T2, human recombinant melanocortin MC4 receptor (Homo sapiens, UniProt P32245); test: Functional cellular cAMP TR-FRET assay, antagonist mode (inhibition of 10 nM NDP-α-MSH response); assay type: cell-based; settings: for Antagonist Fold-margin on human Cmax (unbound): antagonist IC50 divided by clinical Cmax (unbound)
T2 construct: host or cells: frozen, irradiated CHO-K1 cells
T2 sequence (P32245 whole entry): as above

[5] = biological target: T2, human recombinant melanocortin MC4 receptor; test: Functional cellular cAMP TR-FRET assay, agonist mode; assay type: cell-based; settings: for Agonist Fold-margin on human Cmax (unbound): agonist IC50 divided by clinical Cmax (unbound); for IC50: cAMP increase relative to 3 μM NDP-α-MSH control, CHO-K1 cells
[6] = Human clinical Cmax at recommended clinical dosage; assay type: in vivo; settings: unbound (protein-free)
cynomolgous monkeys = settings: daily oral, 39 weeks, AUC 16- to 30-fold clinical exposure at 50 mg; cited from earlier work
human MC4R [7] = biological target: T1, human MC4R; design: method as in earlier work; settings: 10 μM; previously reported; cited from earlier work

Compound | % unbound [1] | % inhibition of binding at 100 µM (human MC4R [2]) | IC50 (human MC4R [2]) | effects on body weight gain (mice) | effects on body weight gain (rats) | Cmax [3] | IC50 [4] | Agonist Fold-margin on human Cmax (unbound) [5] | IC50 [5] | Human efficacious unbound Cmax [6] | effects on body weight gain (cynomolgous monkeys) | Antagonist Fold-margin on human Cmax (unbound) [4] | inhibition binding value (human MC4R [7]) | fold more potent in MC4R antagonism than DTG ([4]; EVG versus DTG) | IC50 ([4]; inhibition of 10 nM NDP-α-MSH induced cAMP response, CHO-K1 cells)
O=C(NCc1c(F)cc(F)cc1F)c1cn2c(c(O)c1=O)C(=O)N1[C@H]3CC[C@H](C3)O[C@@H]1C2 [BIC, bictegravir] | 0.25% | 89% | 4.9 µM | no effects on body weight gain | no effects on body weight gain | 13.7 µM | > 100 µM | >2900 fold | > 100 µM | 0.034 µM | no effects on body weight gain | – | – | – | –
C[C@H]1CO[C@@H]2Cn3cc(C(=O)NCc4ccc(F)cc4F)c(=O)c(O)c3C(=O)N12 [CAB, cabotegravir] | 0.16% | 86% | 0.46 µM | – | – | 15.7 µM | > 30 µM | >1200 fold | > 30 µM | 0.025 µM | – | >1200 fold | – | – | –
C[C@@H]1CCO[C@H]2Cn3cc(C(=O)NCc4ccc(F)cc4F)c(=O)c(O)c3C(=O)N12 [DTG, dolutegravir] | 0.7% | 91% | 1.7 µM | – | – | 8.8 µM | 69.4 µM | >1600 fold | > 100 µM | 0.062 µM | – | 1120 fold | 64% | – | –
COc1cc2c(cc1Cc1cccc(Cl)c1F)c(=O)c(C(=O)O)cn2[C@H](CO)C(C)C [EVG, elvitegravir] | 0.48% | 56% | 13 µM | – | – | 4.7 µM | 2.75 µM | >13000 fold | > 300 µM | 0.0225 µM | – | 120 fold | – | approximately 25 fold | –
Cc1nnc(C(=O)NC(C)(C)c2nc(C(=O)NCc3ccc(F)cc3)c(O)c(=O)n2C)o1 [RAL, raltegravir] | – | 55% | 78 µM | – | – | 15.7 µM | > 300 µM | – | > 300 µM | – | – | – | – | – | –
agouti-related protein (SSRRCVRLHESCLGQQVPCCDPCATCYCRFFNAFCYCRKLGTAMNPCSRT; UniProt O00253 83-132, looked up) [AgRP] | – | – | – | – | – | – | – | – | – | – | – | – | – | – | 0.012 µM
